Data as given in patent US8012995B1, “Pharmaceutically active sulfonamide derivatives” (Merck Serono SA, priority 1999, dated 2011).

Experiments:
JNK2 = JNK2 (Homo sapiens, UniProt P45984); test: JNK2 in vitro assay (SPA, GST-c-Jun phosphorylation); type: biochemical; details: amount necessary to achieve 50% inhibition, GST-c-Jun substrate
Procedure: (§1) JNK 2 and 3 in vitro assays: JNK3 and/or 2 assays are performed in 96 well MTT plates, by incubation of 0.5 μg of recombinant pre-activated GST-JNK or GST-JNK2 with 1 μg of recombinant, biotinylated GST-c-Jun and 2 μM ^33γ-ATP (2 nCi/μl), in the to presence or absence of sulfonamide inhibitors if formula I and in a reaction volume of 50 μl containing 50 mM Tris-HCl, pH 8.0; 10 mM MgCl2; 1 mM Dithiothreitol, and 100 μM NaVO4. The incubation is performed for 120 min. at R.T and stopped upon addition of 200 μl of a solution containing 250 μg of Streptavidine-coated SPA beads (Amersham, Inc.)^•, 5 mM EDTA, 0.1% Triton X-100 and 50 μM ATP, in phosphate saline buffer. After incubation for 60 minutes at RT, beads are sedimented by centrifugation at 1500×g for 5 minutes, resuspended in 200 μl of PBS containing 5 mM EDTA, 0.1% Triton X-100 and 50 μM ATP and the radioactivity measured in a scintillation β counter, following sedimentation of the beads as described above. By substituting GST-c Jun for biotinylated GST-1ATF2 or myelin basic protein, this assay can be used to measure inhibition of preactivated p38 and ERK MAP Kinases, respectively.
(§2) The values indicated in respect of JNK2 and 3, p38 and ERK2 refer to the IC50 (μM), i.e. the amount necessary to achieve 50% inhibition of said target (e.g. JNK2). From the above table it could be derived that said test compounds according to formula I do have a significant effect both on JNK2 and 3, but virtually no effect onto p38 and ERK2, thus delivering a quite selective inhibitory effect.

JNK3 = JNK3 (Homo sapiens, UniProt P53779); test: JNK3 in vitro assay (SPA, GST-c-Jun phosphorylation); type: biochemical; details: amount necessary to achieve 50% inhibition, GST-c-Jun substrate
Procedure: as §1, §2

p38 = p38 (Homo sapiens, UniProt Q16539); test: p38 in vitro kinase assay (SPA, GST-ATF2 substrate); type: biochemical; details: amount necessary to achieve 50% inhibition
Procedure: as §1, §2

ERK2 = ERK2 (Homo sapiens, UniProt P28482); test: ERK2 in vitro kinase assay (SPA, myelin basic protein substrate); type: biochemical; details: amount necessary to achieve 50% inhibition
Procedure: as §1, §2

[1] = tested on: IL-2 release by PMA+Iono-stimulated Jurkat cells; test: IL-2 release assay (ELISA); type: cell-based; details: Homo sapiens, PMA+Ionomycine-stimulated Jurkat cells, 24 hours, read-out: % Inhibition of IL2 Production @3 uM
Procedure: Jurkat cells, a human T cell leukemia cell line (American Type Culture Collection # TIB 152) were cultured in RPMI 1640 medium (Gibco, BRL) supplemented with 10% of […] FCS, Glutamine and Penstrep. The cell suspension in the medium is diluted to give 2.10^6 cells/mL. The cells were plated (2.10^5 cells/well) on a 96-well plate containing different concentration of test compound (final concentration of compounds, 10, 3, 1, […], 0.1 μM). This mixture is incubated 30 minutes at 37° C. in a humidified CO2 atmosphere. Cells were then treated with 10 ul PMA+Ionomycine (0.1 μM and 1 μM final concentration) in all wells except negative control. In wells without compounds, 10 μl of RPMI 2% DMSO (=0.1% final) is added. Cells are incubated 24 hours at 37° C. and then the supernatant harvested (freeze at −20° C. if not used the same day) prior to performing IL-2 ELISA test on the supernatant.
IL-2 release into the medium by PMA+Iono-stimulated Jurkat cells, in presence or absence of test compounds is assayed by ELISA. Following the procedure described below
Transfer 100 μl capture antibody diluted in PBS at 5 μg/mL into a 96 well ELISA plate and incubate overnight at room temperature.
Aspirate each well and wash 3 times with Wash buffer. After the last wash, damp the plate.
1. Saturate with 200 μl PBS-10% FCS. Incubate 1 hour at room temperature.
2. Repeat the wash step 2.
• 1. Add 100 μl of sample or standard ([…]) and incubate 2 hours at room temperature. • 2. Wash 3 times. • 3. Add 100 μl of biotinylated anti-human IL-2 at 12.5 ng/mL. Incubate 2 hours at room temperature. • 4. Wash 3 times. • 5. Add 100 μl streptavidin-HRP (Zymed #43-4323) at 1:10′000. Incubate 30 minutes at room temperature. • 6. Wash 3 times • 7. Add 100 μl substrate solution (citric acid/Na2HPO4 (1:1)+H2O2 1:2000+OPD). Incubate 20-30 minutes at room temperature. • 8. Add 50 μl of stop solution to each well. • 9. Determine optical density using a microliter plate reader set to 450 nm with correction at 570 nm.

Hlr c-Jun HeLa cells = test: C-Jun reporter assay (Dual-Luciferase); type: cell-based; details: Homo sapiens, Hlr c-Jun HeLa cells transfected with pMEKK1
Procedure: Hlr c-Jun HeLa cells are cultured in DMEM High Glc supplemented with 10% FCS (Sigma), 2 mM Glutamine (Gibco), P/S, Hygromycin b 100 μg/mL and G418 250 μg/mL
The cell suspension are diluted with medium to give about 3.5×10^6 cells/mL and 1 mL of cell suspension are put onto 2 10 cm culture dishes containing 9 mL of culture medium.
• Control: 0.2 μg pTK Renilla, 5.8 μg pBluescript KS, 500 μl OPTIMEM (GIBCO), 18 μl Fugene 6 • Induced: 0.1 μg pMEKK1, 0.2 μg pTK Renilla, 5.7 μg pBluescript KS, 500 μl OPTIMEM (GIBCO), 18 μl Fugene 6 30′ RT
The transfection mixture is added to the plated cells. The plates are incubated over night at 37° C. in a humidified atmosphere of 5% CO2 in air
A 96 wells plate containing 100 μl of culture medium per well is prepared
Negative control (vehicle): 2 μl of DMSO is added to the 100 μl (in triplicate).
Compound: 2 μl of Hit compound stock dilution are added to the 100 μl (in triplicate).
The transfected cells are trypsinised and ressuspend in 12 mL of culture medium.
100 μl of the dilution are added to each of the 96 wells plate.
The plate is incubated over night at 37° C. in a humidified atmosphere of 5% CO2 in air
Dual-Luciferase™ Reporter Assay System (Promega)
The medium is removed from the plate and the cells washed two times with 100 μl PBS Completely remove the rinse solution before applying PLB reagent. Dispense into each culture well […] of 1×PLB. Place the culture plates on a rocking platform or orbital shaker with gentle
rocking/shaking to ensure complete and even coverage of the cell monolayer with 1×PLB. Rock the culture plates at room temperature for 15 minutes. Transfer 20 μl of the lysate into a white opaque 96 wells plate. Read in a luminometer.
• Inject 50 μl of Luciferase Assay Reagent II wait 5″, read 10″ • Inject 50 μl of Stop & Glo® Reagent wait 5″, read 10″ Check RLU Luciferase/RLU Renilla *1000

ERK2, sequence (P28482 whole entry, species assumed): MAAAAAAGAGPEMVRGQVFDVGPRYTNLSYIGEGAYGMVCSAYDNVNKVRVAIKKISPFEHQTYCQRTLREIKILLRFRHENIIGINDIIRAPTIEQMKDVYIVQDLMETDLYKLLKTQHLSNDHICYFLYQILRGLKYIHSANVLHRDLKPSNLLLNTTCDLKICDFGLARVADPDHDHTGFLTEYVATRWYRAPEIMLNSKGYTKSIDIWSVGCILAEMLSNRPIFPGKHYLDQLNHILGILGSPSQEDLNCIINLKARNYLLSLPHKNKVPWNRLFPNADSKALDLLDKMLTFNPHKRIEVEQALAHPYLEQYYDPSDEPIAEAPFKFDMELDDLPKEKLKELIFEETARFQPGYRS
p38, sequence (Q16539 whole entry): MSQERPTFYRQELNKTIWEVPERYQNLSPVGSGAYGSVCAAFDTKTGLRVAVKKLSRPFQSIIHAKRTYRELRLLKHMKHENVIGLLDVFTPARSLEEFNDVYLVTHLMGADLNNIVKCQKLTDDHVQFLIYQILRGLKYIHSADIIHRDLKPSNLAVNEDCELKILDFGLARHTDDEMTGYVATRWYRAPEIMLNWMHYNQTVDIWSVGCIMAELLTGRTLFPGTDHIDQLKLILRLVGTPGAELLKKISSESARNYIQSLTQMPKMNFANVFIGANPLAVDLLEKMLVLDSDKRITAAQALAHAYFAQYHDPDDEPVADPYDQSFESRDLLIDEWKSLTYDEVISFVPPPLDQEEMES
JNK2, sequence (P45984 whole entry, species assumed): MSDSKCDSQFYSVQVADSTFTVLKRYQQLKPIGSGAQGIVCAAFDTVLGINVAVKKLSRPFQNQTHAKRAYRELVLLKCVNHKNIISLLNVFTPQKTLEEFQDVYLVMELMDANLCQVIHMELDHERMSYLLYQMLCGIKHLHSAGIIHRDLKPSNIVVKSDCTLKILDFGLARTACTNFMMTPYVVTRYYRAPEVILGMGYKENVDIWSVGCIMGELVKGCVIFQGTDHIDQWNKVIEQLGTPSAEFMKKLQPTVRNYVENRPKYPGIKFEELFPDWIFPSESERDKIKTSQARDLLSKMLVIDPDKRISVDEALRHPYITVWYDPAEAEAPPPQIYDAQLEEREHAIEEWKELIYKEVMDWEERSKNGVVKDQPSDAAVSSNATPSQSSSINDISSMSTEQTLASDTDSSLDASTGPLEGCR
JNK3, sequence (P53779 whole entry, species assumed): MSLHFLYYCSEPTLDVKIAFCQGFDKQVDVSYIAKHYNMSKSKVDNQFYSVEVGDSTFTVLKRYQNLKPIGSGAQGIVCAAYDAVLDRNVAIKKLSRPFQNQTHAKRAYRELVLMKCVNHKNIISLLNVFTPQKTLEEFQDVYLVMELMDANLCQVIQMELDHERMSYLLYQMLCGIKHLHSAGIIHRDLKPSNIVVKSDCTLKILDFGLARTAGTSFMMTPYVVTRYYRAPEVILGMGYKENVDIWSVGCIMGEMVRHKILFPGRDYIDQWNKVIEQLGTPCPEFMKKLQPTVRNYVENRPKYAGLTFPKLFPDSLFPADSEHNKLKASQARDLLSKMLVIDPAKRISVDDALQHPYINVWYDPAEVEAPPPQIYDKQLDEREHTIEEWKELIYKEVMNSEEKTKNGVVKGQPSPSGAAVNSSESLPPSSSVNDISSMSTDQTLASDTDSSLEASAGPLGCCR

IC50 (JNK2) [nM]	IC50 (JNK3) [nM]	IC50 (p38) [nM]	IC50 (ERK2) [nM]	Compound	inhibition at 3 µM [1] [%]	inhibition at 10 µM (Hlr c-Jun HeLa cells) [%]
1190	680	> 30000	> 30000	O=C(NCc1ccc(S(=O)(=O)N2CCC(C(=O)c3ccc(F)cc3F)CC2)s1)c1ccc(Cl)cc1 [Example 37, 4-chloro-N-[(5-{[4-(2,4-difluorobenzoyl)piperidin-1-yl]sulfonyl}thien-2-yl)methyl]benzamide]	> 30	> 30
1300	860	> 30000	> 30000	O=C(NCc1ccc(S(=O)(=O)N2CCCN(C(=O)Cc3ccccc3)CC2)s1)c1ccc(Cl)cc1 [Example 84, 4-chloro-N-[(5-{[4-(phenylacetyl)-1,4-diazepan-1-yl]sulfonyl}thien-2-yl)methyl]benzamide]	> 30	> 30
1050	800	> 30000	> 30000	O=C(NCc1ccc(S(=O)(=O)N2CCC(Nc3ccccc3)CC2)s1)c1ccc(Cl)cc1 [Example 86, N-({5-[(4-anilinopiperidin-1-yl)sulfonyl]thien-2-yl}methyl)-4-chlorobenzamide]	> 30	> 30
640	150	> 30000	> 30000	O=C(NCc1ccc(S(=O)(=O)N2CCC(n3nnc4ccccc43)CC2)s1)c1ccc(Cl)cc1 [Example 91, N-[(5-{[4-(1H-1,2,3-benzotriazol-1-yl)piperidin-1-yl]sulfonyl}thien-2-yl)methyl]-4-chlorobenzamide]	> 30	> 30
590	230	> 30000	> 30000	O=C(NCc1ccc(S(=O)(=O)N2CCC(n3cnc4ccccc43)CC2)s1)c1ccc(Cl)cc1 [Example 109, N-[(5-{[4-(1H-benzimidazol-1-yl)piperidin-1-yl]sulfonyl}thien-2-yl)methyl]-4-chlorobenzamide]	> 30	> 30
560	400	> 30000	> 30000	O=C(NCc1ccc(S(=O)(=O)N2CCC(Nc3ccc(Cl)cc3)CC2)s1)c1ccc(Cl)cc1 [Example 120, 4-chloro-N-[(5-{[4-(4-chloroanilino)piperidin-1-yl]sulfonyl}thien-2-yl)methyl]benzamide]	> 30	> 30
2230	710	> 30000	> 30000	O=C(NCc1ccc(S(=O)(=O)N2CCC(Nc3cccc(S(=O)(=O)CCO)c3)CC2)s1)c1ccc(Cl)cc1 [Example 131, 4-chloro-N-({5-[(4-{3-[(2-hydroxyethyl)sulfonyl]-anilino}piperidin-1-yl)sulfonyl]thien-2-yl}methyl)-benzamide]	> 30	> 30
500	530	> 30000	> 30000	NS(=O)(=O)c1cccc(NC2CCN(S(=O)(=O)c3ccc(CNC(=O)c4ccc(Cl)cc4)s3)CC2)c1 [Example 155, N-{[5-({4-[3-(aminosulfonyl)anilino]piperidin-1-yl}sulfonyl)thien-2-yl]methyl}-4-chlorobenzamide]	> 30	> 30
1200	890	> 30000	> 30000	O=C(NCc1ccc(S(=O)(=O)N2CCN(C(=O)c3cccc4ccccc34)CC2)s1)c1ccc(Cl)cc1 [Example 168, 4-chloro-N-[(5-{[4-(1-naphthoyl)piperazin-1-yl]sulfonyl}thien-2-yl)methyl]benzamide]	> 30	> 30
220	170	> 30000	> 30000	COc1cccc(NC2CCN(S(=O)(=O)c3ccc(CNC(=O)c4ccc([N+](=O)[O-])cc4)s3)CC2)c1 [Example 204, 4-nitro-N-[(5-{[4-(3-methoxyanilino)piperidin-1-yl]sulfonyl}thien-2-yl)methyl]-benzamide]	> 30	> 30
390	270	> 30000	> 30000	COC(=O)c1cccc(NC2CCN(S(=O)(=O)c3ccc(CNC(=O)c4ccc([N+](=O)[O-])cc4)s3)CC2)c1 [Example 211, methyl 3-{[1-({5-[({4-nitrobenzoyl}amino)methyl]thien-2-yl}sulfonyl)piperidin-4-yl]amino}benzoate]	> 30	> 30
220	360	> 30000	> 30000	O=C(NCc1ccc(S(=O)(=O)N2CCC(n3nnc4ccccc43)CC2)s1)c1ccccc1O [Example 271, N-[(5-{[4-(1H-1,2,3-benzotriazol-1-yl)piperidin-1-yl]sulfonyl}thien-2-yl)methyl]-2-hydroxybenzamide]	> 30	> 30
230	190	> 30000	> 30000	COc1cccc(C(=O)NCc2ccc(S(=O)(=O)N3CCC(Nc4ccccc4[N+](=O)[O-])CC3)s2)c1 [Example 285, N-({5-[(4-{2-nitroanilino}piperidin-1-yl)sulfonyl]thien-2-yl}methyl)-3-methoxybenzamide]	> 30	> 30
